Laboratory results published in patent US12281114B2, “NK3 modulators and uses thereof” (Kallyope, Inc., priority 2023, dated 2025).

biological target: T1, human NK3 (Homo sapiens, UniProt P29371); assay: FLIPR calcium assay in antagonist mode (NKB EC70 challenge); type: cell-based; conditions: stable cell line expressing human recombinant NK3; antagonist mode vs EC70 of NKB agonist
T1 sequence (P29371 1-465): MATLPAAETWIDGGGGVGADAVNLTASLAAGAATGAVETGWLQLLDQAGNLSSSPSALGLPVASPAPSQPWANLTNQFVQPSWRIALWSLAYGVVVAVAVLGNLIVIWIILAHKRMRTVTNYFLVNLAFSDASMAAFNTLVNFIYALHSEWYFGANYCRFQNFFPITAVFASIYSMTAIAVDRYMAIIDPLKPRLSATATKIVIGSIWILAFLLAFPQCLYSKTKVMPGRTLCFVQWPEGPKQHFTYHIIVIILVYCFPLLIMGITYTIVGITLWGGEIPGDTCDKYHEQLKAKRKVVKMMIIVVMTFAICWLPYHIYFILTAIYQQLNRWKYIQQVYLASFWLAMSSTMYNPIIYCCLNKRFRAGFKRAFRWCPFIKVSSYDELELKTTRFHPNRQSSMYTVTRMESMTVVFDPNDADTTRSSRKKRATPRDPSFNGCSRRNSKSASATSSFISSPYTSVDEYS
Description: Stable Cell Lines: A human recombinant NK3 Tachykinin Receptor stable cell line was purchased from GenScript (Genscript, Cat. #M00201; GenBank Accession Number NM 001059). The cell line was cultured according to manufacturer instructions, using 100 μg/mL Hygromycin B (Invitrogen, Cat. #D2650) for selective pressure. Cells were then collected using 0.05% Trypsin-EDTA (GIBCO, Cat. #25300) and frozen in a freezing media containing 90% FBS (Gibco, Cat. #10099-141) and 10% DMSO (Sigma, Cat. #D2650) at a density of 30×10^6 cells/mL. This bank of assay-ready frozen cells was later used in FLIPR assays to evaluate the potency and efficacy of NK3 antagonist test compounds.
FLIPR Calcium Assay: The FLIPR assay, used to measure changes in intracellular calcium levels, was performed in a 384-well plate format using the FLIPR Calcium 6 assay kit (Molecular Devices, Cat. #R8190). Assay-ready frozen cells expressing human NK3 (Genscript, Cat. #M00201) were thawed, washed, trypsinized, counted using a ViCell, and plated in cell growth media without Hygromycin at a density of […] (40 μL/well).
Calculation of NKB EC70: An EC70 concentration of NKB needed to be determined for competition against test antagonists prior to the compound screen. NKB agonist (Phoenix Pharmaceuticals, Cat. #046-26) was diluted in DMSO at 1800 nM (6-fold the final concentration) and serially diluted to generate a 13-point dose response curve (3-fold serial dilution) using an ECHO. 20 μL of 1× stimulation buffer was added using the BRAVO. 10 μL of DMSO was added while on the FLIPR (described as the first addition), then the RFU signal was measured for 10 minutes. The NKB titration was added to the plate, then the RFU signal was measured for 10 minutes (described as the second addition) on the FLIPR. The EC70 concentration was determined by using a four-parameter fit on GraphPad Prism prior to performing the compound screen.
FLIPR Screen in Antagonist Mode: Test compounds were prepared at 60 μM (6-fold the final concentration) and spotted in 370 nL using the Janus and ECHO. 20 μL of assay buffer was added using the BRAVO. Calcium-sensitive dye was reconstituted in loading buffer (Molecular Devices, Cat. #R8190). Media was removed from the cell plate using a Bluecat Cell Washer, and 40 μL of dye was added to the cell plate using the Apricot. The plate was incubated for 2 hours at 37° C., 5% CO2, then transferred to the FLIPR instrument. 10 μL of compound was added on the FLIPR (described as the first addition), then the RFU signal was measured for 10 minutes. EC70 of NKB agonist was added to the entire plate (described as the second addition), and the RFU signal was measured for 10 minutes on the FLIPR. RFU (relative fluorescence units) signals for first baseline, first peak, second baseline, and second peak were measured using the FLIPR. RFU signal (second peak minus second baseline) for positive (Max, at 10 μM antagonist) and negative (Min, at 0 μM antagonist) controls were used to normalize data and generate values for % Activity. IC50 and efficacy values were determined using a standard curve fitting equation on Dotmatics.

SMILES	IC50 [nM]
Cc1nn(C)cc1-c1ccccc1-c1nc2cc(C(=O)NC34COC(CO)(C3)C4)ccn2c1Cl [Compound 615]	2.5
Cc1nn(C)cc1-c1ccccc1-c1nc2cc(C(=O)NCCc3n[nH]c(=O)[nH]3)ccn2c1Cl [Compound 748]	5.58
Cc1nn(C)cc1-c1ccccc1-c1nc2cc(C(=O)NC[C@@H](C)N3CCNC3=O)ccn2c1Cl [Compound 490]	3.4
Cc1nn(C)cc1-c1ccccc1-c1nc2cc(C(=O)N3C[C@H](N)[C@@H](O)C3)ccn2c1Cl [Compound 442]	15.1
Cc1nn(C)cc1-c1ccccc1-c1nc2cc(C(=O)NC[C@H]3C[C@@H](O)C3(C)C)ccn2c1Cl [Compound 645]	2.02
Cn1cc(-c2ccccc2-c2nc3cc(C(=O)N4C[C@@H]5C[C@H]4C(=O)N5)ccn3c2Cl)c(C#N)n1 [Compound 795]	12.5
O=C(NC1CC(CO)(CO)C1)c1ccn2c(Cl)c(-c3c(F)cc(F)cc3-c3cnn(C4CC4)c3F)nc2c1 [Compound 851]	1.93
Cc1nn(C)cc1-c1ccccc1-c1nc2cc(C(=O)N3CCc4n[nH]nc4C3)ccn2c1Cl [Compound 486]	6.85
Cc1nn(C)cc1-c1ccccc1-c1nc2cc(C(=O)NC(C)c3n[nH]c(=O)[nH]3)ccn2c1Cl (stereo not drawn) [Compound 747]	2.08
CC(=O)NCCNC(=O)c1ccn2c(Cl)c(-c3ccccc3-c3cn(C)nc3C)nc2c1 [Compound 451]	7.13
Cc1nn(C)cc1-c1ccccc1-c1nc2cc(C(=O)NCC(C)(C)O)ccn2c1Cl [Compound 448]	6.01
Cc1nn(C)cc1-c1ccccc1-c1nc2cc(C(=O)N3CCNCC3)ccn2c1C [Compound 271]	20.3
Cc1nn(C)cc1-c1ccccc1-c1nc2cc(C(=O)N[C@@H]3CO[C@H]4[C@@H]3OC[C@H]4O)ccn2c1C#N [Compound 431]	4.03
Cc1nn(C)cc1-c1ccccc1-c1nc2cc(C(=O)N[C@H]3CO[C@H]4[C@@H]3OC[C@H]4O)ccn2c1C#N [Compound 781]	12.7
Cc1nn(C)cc1-c1ccccc1-c1nc2cc(C(=O)NC[C@H]3CNCCO3)ccn2c1Cl [Compound 461]	3.41
Cc1nn(C)cc1-c1ccccc1-c1nc2cc(C(=O)N3CCN(C4CCNC4)CC3)ccn2c1Cl (stereo not drawn) [Compound 443]	11.3
Cc1nc(N)ccc1CNC(=O)c1ccn2c(Cl)c(-c3ccccc3-c3cn(C)nc3C)nc2c1 [Compound 759]	2.78
Cc1nn(C)cc1-c1ccccc1-c1nc2cc(C(=O)NC[C@@H]3CNCCO3)ccn2c1Cl [Compound 455]	1.74
Cc1nn(C)cc1-c1ccccc1-c1nc2cc(C(=O)N3CC(=O)N[C@@H](CO)C3)ccn2c1Cl [Compound 638]	25.8
Cc1nn(C)cc1-c1ccccc1-c1nc2cc(C(=O)NCc3cnc(N)nc3)ccn2c1Cl [Compound 761]	1.92
Cc1nn(C)cc1-c1ccccc1-c1nc2cc(C(=O)N3C[C@@H]4C[C@H]3C(=O)N4)ccn2c1Cl [Compound 434]	1.47
Cc1nn(C)cc1-c1ccccc1-c1nc2cc(C(=O)N3C[C@@H]4NCCN[C@@H]4C3)ccn2c1Cl [Compound 798]	22.4
Cc1nn(C)cc1-c1ccccc1-c1nc2cc(C(=O)N3CC[C@H](N4CCNCC4)C3)ccn2c1C (single isomer, unassigned) [Compound 481]	16.1
C[C@]1(O)C[C@H](NC(=O)c2ccn3c(Cl)c(-c4ccccc4-c4cnn(C(F)F)c4Cl)nc3c2)C1 [Compound 818]	0.99
Cc1nn(C)cc1-c1ccccc1-c1nc2cc(C(=O)N[C@@H]3CO[C@H]4[C@@H]3OC[C@H]4O)ccn2c1C [Compound 425]	3.16
Cc1c(-c2ccccc2-c2nc3cc(C(=O)N[C@@H]4CO[C@H]5[C@@H]4OC[C@H]5O)ccn3c2Cl)cnn1CC1CC1 [Compound 801]	22
C[C@]1(O)C[C@H](NC(=O)c2ccn3c(Cl)c(-c4ccccc4-c4cnn(C(F)(F)F)c4Cl)nc3c2)C1 [Compound 820]	0.77

The next lines start with the values.

IC50 [nM]	SMILES
0.97	Cn1cc(-c2cccc(F)c2-c2nc3cc(C(=O)N[C@H]4CC[C@H](CO)OC4)ccn3c2Cl)c(F)n1 [Compound 924, 3-chloro-2-(2-fluoro-6-(3-fluoro-1-methyl-1H-pyrazol-4-yl)phenyl)-N-((3S,6R)-6-(hydroxymethyl)tetrahydro-2H-pyran-3-yl)imidazo[1,2-a]pyridine-7-carboxamide]
26.8	Cc1nn(C)cc1-c1ccccc1-c1nc2cc(C(=O)N[C@H]3C[C@@](C)(C(=O)O)C3)ccn2c1C [Compound 298]
0.42	Cn1cc(-c2cccc(F)c2-c2nc3cc(C(=O)NC[C@H]4C[C@@](C)(O)C4)ccn3c2Cl)c(F)n1 [Compound 844]
0.71	Cn1cc(-c2cccc(F)c2-c2nc3cc(C(=O)N[C@H]4CC5(C[C@@H](O)C5)C4)ccn3c2Cl)c(F)n1 (stereo partly drawn) [Compound 921, trans 3-chloro-2-(2-fluoro-6-(3-fluoro-1-methyl-1H-pyrazol-4-yl)phenyl)-N-(6-hydroxyspiro[3.3]heptan-2-yl)imidazo[1,2-a]pyridine-7-carboxamide]
1.27	Cn1cc(-c2cccc(F)c2-c2nc3cc(C(=O)N[C@H]4CC[C@@](C)(O)CC4)ccn3c2Cl)c(F)n1 [Compound 919]
9.69	Cn1cc(-c2cccc(F)c2-c2nc3cc(C(=O)N[C@]45CC[C@](CO)(C4)OC5)ccn3c2Cl)cn1 [Compound 934]
4.11	Cc1nn(C)cc1-c1cccc(F)c1-c1nc2cc(C(=O)N3CCN(C(CO)CO)CC3)ccn2c1Cl [Compound 796]
0.46	Cn1cc(-c2cccc(F)c2-c2nc3cc(C(=O)NCC45CC(CO)(CO4)C5)ccn3c2Cl)c(F)n1 [Compound 839]
2.09	Cc1nn(C)cc1-c1ccccc1-c1nc2cc(C(=O)N3CCC4(CC(CO)C4)C3)ccn2c1Cl (stereo not drawn) [Compound 792]
2.07	Cn1cc(-c2cccc(F)c2-c2nc3cc(C(=O)N[C@H]4CC5(C4)C[C@](C)(O)C5)ccn3c2Cl)c(F)n1 (stereo partly drawn) [Compound 929, trans 3-chloro-2-(2-fluoro-6-(3-fluoro-1-methyl-1H-pyrazol-4-yl)phenyl)-N-(6-hydroxy-6-methylspiro[3.3]heptan-2-yl)imidazo[1,2-a]pyridine-7-carboxamide]
2.21	Cn1cc(-c2cccc(F)c2-c2nc3cc(C(=O)N[C@H]4CC[C@@H](CO)OC4)ccn3c2C#N)c(F)n1 [Compound 926]
6.24	Cn1cc(-c2cccc(F)c2-c2nc3cc(C(=O)N[C@H]4C[C@@](C)(O)C4)ccn3c2Cl)cn1 [Compound 835]
3.33	Cc1nn(C)cc1-c1cc(F)cc(F)c1-c1nc2cc(C(=O)N3CC4(O)CC3C4)ccn2c1Cl [Compound 814]
1.71	Cn1cc(-c2ccccc2-c2nc3cc(C(=O)NC45CCC(O)(CC4)C5)ccn3c2Cl)c(F)n1 [Compound 855]
2.9	Cc1nn(C)cc1-c1cccc(F)c1-c1nc2cc(C(=O)N[C@@H]3CO[C@H]4[C@@H]3OC[C@H]4O)ccn2c1C#N [Compound 464]
2.66	Cn1cc(-c2ccc(F)c(F)c2-c2nc3cc(C(=O)N[C@H]4C[C@](C)(O)C4)ccn3c2Cl)c(F)n1 [Compound 927]
1.08	Cn1cc(-c2cccc(F)c2-c2nc3cc(C(=O)N[C@H]4C[C@](O)(CO)C4)ccn3c2Cl)c(F)n1 [Compound 843]
1.42	Cn1cc(-c2cccc(F)c2-c2nc3cc(C(=O)NC45CCC(CO)(C4)OC5)ccn3c2Cl)c(F)n1 (stereo not drawn) [Compound 854]
